Experimental data as given in article PMC5778159 (Naunyn-Schmiedeberg's Archives of Pharmacology, 2017).
Structures can show the parent of a compound that is named as a salt.

Columns and labels:
[1] = Isolated perfused rat liver (IPRL) study, recirculating; conditions: for form eliminated with bile: mass spectrometric analysis of rat bile, precursor ion 292 mode
Description: Rat livers were perfused in situ using PS-1 perfusion system from Harvard Apparatus-Hugo Sachs Electronics (HA-HSE). […] The temperature of the perfusion medium was thermostatically controlled at 37 °C. In each experiment, the common bile duct was cannulated with PE-10 tubing. […] Experiments were carried out in a recirculating manner with the total volume of perfusate equal 200 mL. […] Samples of bile were collected in pre-weighed Eppendorf vials and measured by gravimetric volume at the end of perfusion period, assuming a density of 1. Perfusate was collected from the reservoir at 5 min intervals up to 45 min.
Non-compartmental estimates of hepatic pharmacokinetic parameters were determined from the outflow concentration-time profiles. The hepatic extraction ratio (ERH) was calculated according to the following equation:2 ERH=CLH/Q where CLH is a hepatic clearance (per gram of liver) and Q is a perfusate flow (per gram of liver).
The apparent hepatobiliary clearance (CLb,app) was calculated as the cumulative amount of drug excreted in bile divided by the AUC0-t of the drug in the perfusate.

[2] = Pharmacokinetic study in rats after single i.v. or i.p. tianeptine, non-compartmental analysis; conditions: rat
Description: Male Wistar rats, 13–15 weeks of age and weighing between 200 and 220 g, were used in all the experiments. They were kept under conditions of constant temperature (21–25 °C) and a relative humidity of approximately 40–65% with a standard light/dark cycle. Animals were housed in the stainless steel cages with suspended wire-mesh floors and had free access to water and the commercial rodent chow.
Six rats were used in PK experiments, and 3 days prior to the experiment, rat jugular vein was cannulated allowing for the multiple blood sampling from a single animal. […] Plasma was harvested by centrifuging at 3000 r.p.m. for 10 min and stored at − 30°C until bioanalysis. Plasma samples (100 μL) were further processed as described in “Sample preparation” section.
(§1) Pharmacokinetic parameters were calculated by employing a non-compartmental approach, using Phoenix WinNonlin software v. 6.3 (Pharsight, USA). For i.v. administration, plasma concentration at time zero (C 0) was back-extrapolated using log-linear regression, while the maximum concentration after i.p. administration (C max) and the time to C max (t max) were obtained directly from the concentration-time data. The area under the mean plasma concentration versus time curve extrapolated to infinity (AUC0-inf) was estimated using the log/linear trapezoidal rule. AUMC0-inf was estimated by calculation of the total area under the first-moment curve by combining the trapezoid calculation of AUMC0-t and extrapolated area. The mean residence time (MRT) was calculated from AUMC0-inf/AUC0-inf. The terminal rate constant (λ z) was calculated by log-linear regression of the drug concentration data in the terminal phase and the terminal half-life (t 1/2) was calculated as 0.693/λ z. The systemic clearance (CL) was estimated from the administered dose divided by AUC0-inf. The volume of distribution at steady state (V ss) was calculated from D i.v.⋅AUMC/AUC^2, where D i.v is the dose administered i.v. in mg per kg of body weight. The concentration versus time profiles of the parent drug and metabolite following both routes of administration were also fitted simultaneously to the pharmacokinetic model with a metabolite compartment to obtain one set of parameters. During iteration process, the fraction of dose absorbed (F) was fixed to the value calculated using the following equation:1 F=AUC0−ti.p.∙Di.v./AUC0−ti.v.∙Di.p.
where AUC0-t is the area under the concentration versus time curve calculated to the last measured point and D is the dose administered.

[3] = humans ref Carlhant et al. [1990]; cited from earlier work
[4] = Stability of analytes in rat plasma (bench top, freezer, freeze/thaw, autosampler); assay type: in vitro ADME; conditions: bench top 2 h, − 30°C 90 days, autosampler 10°C up to 24 h
Description: The stability of analytes was determined in the battery of tests according to the appropriate guidelines. Namely, the bench top stability (for 2 h), freezer stability (at − 30°C for 90 days), freeze/thaw stability and post preparative autosampler stability (at 10°C up to 24 h). Samples were considered to be stable when 85–115% of the initial concentrations were found.

[5] = PK model with a metabolite compartment fitted simultaneously to i.v. and i.p. rat plasma data
Description: as §1

[6] = male, Wistar, in vivo, ip, 10 mg/kg
[7] = male, Wistar, in vivo, iv, 1 mg/kg

SMILES	metabolic ratio of MC5 (AUC0-t metabolite / AUC0-t tianeptine) ([1]; isolated perfused rat liver, mean ± SD)	form eliminated with bile [1]	percent eliminated into the bile ([1]; up to 45 min of perfusion, mean ± SD)	time at which C max attained ([2]; after both routes of administration (i.v. and i.p.) of tianeptine)	t 0.5λz ([2]; after tianeptine i.p. 10 mg/kg, GM (90% CI), n = 3)	Cmax [2, 6]	MRT [2, 6]	Tmax [2, 6]	k el [2, 6]	MRT [2, 7]	Tmax [2, 7]	half-life [2, 7]	k el [2, 7]	overall exposure (AUC) to MC5 relative to tianeptine ([2]; regardless of the route of administration)	time to C max [3]	stability in rat plasma [4]	half-life ([5]; male, Wistar, in vivo)	k el ([5]; male, Wistar, in vivo)	V m/f m ([5]; metabolite compartment, i.v. and i.p. fitted simultaneously)
CN1c2ccccc2C(NCCCCC(=O)O)c2ccc(Cl)cc2S1(=O)=O (centres unmarked) [MC5, tianeptine metabolite MC5 sodium salt]	18.76 ± 8.11%	glucuronide and glutamine conjugates	3.07 ± 0.66 % of the administered dose	30 min	3.69 (1.39–9.83) h	2020 ng/mL	4.1 h	0.5 h	5.19e-05 s⁻¹	8.28 h	0.4 h	7.53 h	2.5e-05 s⁻¹	1.2 times	2.96 ± 0.95 h	no stability related problems	1.66 h	0.000116 s⁻¹	2.971 L/kg
CN1c2ccccc2C(NCCCCCCC(=O)O)c2ccc(Cl)cc2S1(=O)=O (centres unmarked) [Tianeptine, Tianeptine sodium salt, reference compound]	–	glucuronide and glutamine conjugates	–	–	–	–	–	–	–	–	–	–	–	–	–	–	–	–	–
